22 compounds from ChEMBL document CHEMBL1132742, “The synthesis and SAR of rhodanines as novel class C beta-lactamase inhibitors” (Bioorg Med Chem Lett, 2000) can be followed below.

A word on the IC50: it is the concentration that gives 50% inhibition. Lower therefore signals inhibition by little substance. For orientation: MIC means the smallest concentration in the dilution series that meets the test's criterion for growth inhibition.

Experiment [1] deals with Beta-lactamase TEM (Escherichia coli) (UniProt P62593). Nature of the experiment: Inhibitory activity against class A Beta-lactamase TEM isolated from Escherichia coli.
Beta-lactamase TEM (Escherichia coli), sequence (P62593 whole entry, looked up): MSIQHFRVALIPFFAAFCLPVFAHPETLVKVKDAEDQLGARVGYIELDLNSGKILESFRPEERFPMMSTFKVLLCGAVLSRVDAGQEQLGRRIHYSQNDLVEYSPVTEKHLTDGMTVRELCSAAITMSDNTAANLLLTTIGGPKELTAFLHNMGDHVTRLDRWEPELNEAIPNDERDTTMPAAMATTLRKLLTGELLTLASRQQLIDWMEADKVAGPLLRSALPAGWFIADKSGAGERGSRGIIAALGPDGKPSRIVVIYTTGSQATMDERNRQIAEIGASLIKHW
The next experiment addresses Beta-lactamase (Enterobacter cloacae, UniProt P05364). The experiment in a line: Inhibitory activity against class C Beta-lactamase isolated from Enterobacter cloacae.
Experiment [2] deals with Enterobacter cloacae. Nature of the experiment: The ratio of compound to that of piperacillin was evaluated for antimicrobial activity against Enterobacter cloacae OC 4080 by inhibiting enzyme P99 at 1 ug/mL. In kind it is functional.
The test system of experiment [3] is Enterobacter cloacae. Nature of the experiment: The ratio of compound to that of piperacillin was evaluated for antimicrobial activity against Enterobacter cloacae OC 4080 by inhibiting enzyme P99 at 4 ug/mL; not applicable. In kind it is functional, organism-based.
Experiment [4] concerns Pseudomonas aeruginosa. The experiment in a line: The ratio of compound to that of piperacillin was evaluated for antimicrobial activity against Pseudomonas aeruginosa OC 4290 by inhibiting enzyme AmpC(const) at 1 ug/mL. In kind it is functional.
Experiment [5] has as its system Pseudomonas aeruginosa. Nature of the experiment: The compound was evaluated for antimicrobial activity against Pseudomonas aeruginosa OC 4290 by inhibiting enzyme AmpC(const). It is filed as functional.
In experiment [6] the test system is Pseudomonas aeruginosa. Nature of the experiment: The ratio of compound to that of piperacillin was evaluated for antimicrobial activity against Pseudomonas aeruginosa OC 4290 by inhibiting enzyme AmpC(const) at 4 ug/mL. It is filed as functional.
Experiment [7] has as its system Pseudomonas aeruginosa. Nature of the experiment: The ratio of compound to that of piperacillin was evaluated for antimicrobial activity against Pseudomonas aeruginosa OC 4270 by inhibiting enzyme AmpC(ind) at 4 ug/mL. In kind it is functional.
Experiment [8] deals with Pseudomonas aeruginosa. The experiment in a line: The ratio of compound to that of piperacillin was evaluated for antimicrobial activity against Pseudomonas aeruginosa OC 4270 by inhibiting enzyme AmpC(ind) at 1 ug/mL. In kind it is functional.
Experiment [9] relates to Serratia marcescens. The experiment in a line: The ratio of compound to that of piperacillin was evaluated for antimicrobial activity against Serratia marcescens OC 4101 by inhibiting enzyme AmpC(ind) at 1 ug/mL. It is filed as functional.
Experiment [10] relates to Escherichia coli. Nature of the experiment: The ratio of compound to that of piperacillin was evaluated for antimicrobial activity against Escherichia coli OC 4075 by inhibiting enzyme TEM-1 at 1 ug/mL. It is filed as functional.
For experiment [11], the system named is Serratia marcescens. Nature of the experiment: The compound was evaluated for antimicrobial activity against Serratia marcescens OC 4101 by inhibiting enzyme AmpC(ind). It is filed as functional.
Experiment [12] relates to Enterobacter cloacae. Nature of the experiment: The compound was evaluated for antimicrobial activity against Enterobacter cloacae OC 4092 by inhibiting enzyme E2 (ind). It is filed as functional.
Experiment [13] concerns Escherichia coli. Nature of the experiment: The compound was evaluated for antimicrobial activity against Escherichia coli OC 4075 by inhibiting enzyme TEM-1. In kind it is functional.
Experiment [14] has as its system Serratia marcescens. Nature of the experiment: The compound was evaluated for antimicrobial activity against Serratia marcescens OC 4294 by inhibiting enzyme AmpC(const). It is filed as functional.
In experiment [15] the test system is Serratia marcescens. The experiment in a line: The ratio of compound to that of piperacillin was evaluated for antimicrobial activity against Serratia marcescens OC 4294 by inhibiting enzyme AmpC(const) at 4 ug/mL. It is filed as functional.
Experiment [16] concerns Pseudomonas aeruginosa. Nature of the experiment: The compound was evaluated for antimicrobial activity against Pseudomonas aeruginosa OC 4270 by inhibiting enzyme AmpC(ind). In kind it is functional.
Experiment [17] relates to Escherichia coli. The experiment in a line: The ratio of compound to that of piperacillin was evaluated for antimicrobial activity against Escherichia coli OC 4075 by inhibiting enzyme TEM-1 at 4 ug/mL; not applicable. In kind it is functional, organism-based.
In experiment [18] the test system is Enterobacter cloacae. Nature of the experiment: The compound was evaluated for antimicrobial activity against Enterobacter cloacae OC 4080 by inhibiting enzyme P99. It is filed as functional.
Experiment [19] has as its system Serratia marcescens. The experiment in a line: The ratio of compound to that of piperacillin was evaluated for antimicrobial activity against Serratia marcescens OC 4101 by inhibiting enzyme AmpC(ind) at 4 ug/mL. In kind it is functional.
Experiment [20] concerns Serratia marcescens. The experiment in a line: The ratio of compound to that of piperacillin was evaluated for antimicrobial activity against Serratia marcescens OC 4294 by inhibiting enzyme AmpC(const) at 1 ug/mL. It is filed as functional.
The test system of experiment [21] is Enterobacter cloacae. The experiment in a line: The compound was evaluated for antimicrobial activity against Enterobacter cloacae OC 4081 by inhibiting enzyme E2 (const). It is filed as functional.
The test system of experiment [22] is Escherichia coli. Nature of the experiment: The ratio of compound to that of piperacillin was evaluated for antimicrobial activity against Escherichia coli OC 4075 by inhibiting enzyme TEM-1 at 4 ug/mL. It is filed as functional.
In experiment [23] the test system is Enterobacter cloacae. The experiment in a line: The ratio of compound to that of piperacillin was evaluated for antimicrobial activity against Enterobacter cloacae OC 4080 by inhibiting enzyme P99 at 4 ug/mL. In kind it is functional.
[24] abbreviates: Pseudomonas aeruginosa, read-out: MIC.
Where [25] appears, read: Escherichia coli, read-out: MIC.
[26] abbreviates: Enterobacter cloacae, read-out: MIC.

In brackets after ≈: the same amount, converted by molar mass. Activity calls are given as the source filed them.

Beta-lactamase, sequence (P05364 whole entry): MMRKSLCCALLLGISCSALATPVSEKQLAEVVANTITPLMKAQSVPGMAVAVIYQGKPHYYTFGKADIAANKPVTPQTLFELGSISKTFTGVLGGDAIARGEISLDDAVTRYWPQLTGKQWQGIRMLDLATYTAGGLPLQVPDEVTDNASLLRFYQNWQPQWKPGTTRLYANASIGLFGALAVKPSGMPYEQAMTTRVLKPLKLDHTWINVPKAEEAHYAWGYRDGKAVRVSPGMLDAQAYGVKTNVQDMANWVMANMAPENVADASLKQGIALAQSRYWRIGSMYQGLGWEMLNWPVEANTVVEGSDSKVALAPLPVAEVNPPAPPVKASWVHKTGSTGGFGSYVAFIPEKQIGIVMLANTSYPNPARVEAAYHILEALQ

In the case of `O=C1/C(=C/c2ccccc2)SC(=S)N1CNc1nn[nH]n1`, the results for the IC50 (in experiment [1]; on Beta-lactamase) were above 700 µM and 435 µM, respectively.

Turning to `N#Cc1ccc(/C=C2\SC(=S)NC2=O)cc1`, the IC50 was above 700 µM in [1] and 500 µM against Beta-lactamase.

Take `O=C1NC(=S)S/C1=C1/C(=O)Nc2ccccc21`: the 50% inhibitory concentration (IC50) amounted to 8.7 µM in experiment [1] and 2.6 µM at Beta-lactamase.

As to `O=C1NC(=S)S/C1=C\c1ccc([N+](=O)[O-])cc1`, the IC50 was above 700 µM in experiment [1] and 43 µM against Beta-lactamase.

As to `O=C1NC(=S)SC1=CC=Cc1ccc([N+](=O)[O-])o1`, the IC50 in [1] amounted to 100 µM; against Beta-lactamase it was 0.45 µM. For the same compound, the Ratio with Enterobacter cloacae [2] is listed as 64; in the experiment with Pseudomonas aeruginosa [4], 16; in the experiment on Pseudomonas aeruginosa [6], 8; in the experiment on Pseudomonas aeruginosa [7] it was 4; with Pseudomonas aeruginosa [8], 4; in the experiment on Serratia marcescens [9] it was 2. The Ratio was found to be 64 in the experiment on Escherichia coli [10], 8 with Serratia marcescens [15], 2 with Serratia marcescens [19] and 32 with Serratia marcescens [20]. For the same compound, the Ratio entry with Enterobacter cloacae [3] and with Escherichia coli [17] was “inactive” each time. Moreover, the MIC is 32 µg/mL (≈ 113 µM) with Pseudomonas aeruginosa [5]; 32 µg/mL (≈ 113 µM) in the experiment with Pseudomonas aeruginosa [5] (setting [24]); 8 µg/mL (≈ 28.3 µM) against Serratia marcescens [11]; 32 µg/mL (≈ 113 µM) against Enterobacter cloacae [12]; 2 µg/mL (≈ 7.08 µM) against Escherichia coli [13]; 2 µg/mL (≈ 7.08 µM) with Escherichia coli [13] (setting [25]). Moreover, the MIC in the experiment on Serratia marcescens [14] is 8 µg/mL (≈ 28.3 µM); against Pseudomonas aeruginosa [16], 32 µg/mL (≈ 113 µM); in the experiment on Pseudomonas aeruginosa [16] (setting [24]) it was 32 µg/mL (≈ 113 µM); against Enterobacter cloacae [18], 2 µg/mL (≈ 7.08 µM); in the experiment on Enterobacter cloacae [18] (setting [26]), 2 µg/mL (≈ 7.08 µM); in the experiment with Enterobacter cloacae [21], 32 µg/mL (≈ 113 µM).

Take `CCN1CCN(C(=O)N[C@@H](C(=O)N[C@@H]2C(=O)N3[C@@H]2SC(C)(C)[C@@H]3C(=O)O)c2ccccc2)C(=O)C1=O` [PIPERACILLIN]: the MIC with Pseudomonas aeruginosa [5] (setting [24]) was above 64 µg/mL; in the experiment on Serratia marcescens [11], 8 µg/mL (≈ 15.5 µM); in the experiment on Escherichia coli [13] it was above 64 µg/mL; with Serratia marcescens [14] it was above 64 µg/mL; in the experiment with Pseudomonas aeruginosa [16] (setting [24]), 8 µg/mL (≈ 15.5 µM); in the experiment on Enterobacter cloacae [18] (setting [26]), above 64 µg/mL.

As to `O=C1NC(=O)C(=CC=Cc2ccc([N+](=O)[O-])o2)S1`, the IC50 (in experiment [1]; against Beta-lactamase) was above 50 µM throughout. The MIC came out at 32 µg/mL (≈ 120 µM) in the experiment on Pseudomonas aeruginosa [5] (setting [24]); 4 µg/mL (≈ 15 µM) with Enterobacter cloacae [12]; 1 µg/mL (≈ 3.76 µM) with Escherichia coli [13] (setting [25]); 32 µg/mL (≈ 120 µM) in the experiment on Pseudomonas aeruginosa [16] (setting [24]); 0.5 µg/mL (≈ 1.88 µM) in the experiment on Enterobacter cloacae [18] (setting [26]); 4 µg/mL (≈ 15 µM) in the experiment with Enterobacter cloacae [21].

As for `O=C1NC(=S)S/C1=C\c1cn(-c2ccccc2)cn1`, the half-maximal inhibitory concentration (IC50) (in experiment [1]; against Beta-lactamase) was above 700 µM in each case.

As for `CC(=O)Nc1ccccc1/C=C1\SC(=S)NC1=O`, the half-maximal inhibitory concentration (IC50) was 190 µM in [1] and above 700 µM against Beta-lactamase.

As to `O=C1NC(=S)S/C1=C\c1cn(-c2ccccc2)nn1`, the 50% inhibitory concentration (IC50) in experiment [1] was above 700 µM; against Beta-lactamase it was 83 µM.

For the compound `CCN1C(=O)/C(=C/c2ccccc2)SC1=S`, the IC50 was 432 µM in [1] and 240 µM against Beta-lactamase.

Consider `O=C1NC(=S)SC1=CC=Cc1ccccc1`, for which the results for the IC50 (in [1]; on Beta-lactamase) were above 700 µM and 76 µM, respectively.

For `O=C1/C(=C/c2ccccc2)SC(=S)N1CNc1nncs1`, the IC50 in experiment [1] stood at 138 µM; at Beta-lactamase, 246 µM.

For the compound `O=C1NC(=S)S/C1=C\c1ccccc1[N+](=O)[O-]`, the results for the IC50 (in experiment [1]; on Beta-lactamase) were above 700 µM and 290 µM, respectively.

For the compound `O=C1NC(=S)S/C1=C\c1ccccc1C(=O)O`, the IC50 (in experiment [1]; against Beta-lactamase) was above 700 µM throughout.

Turning to `O=C1NC(=S)S/C1=C\c1ccccc1O`, the half-inhibitory concentration (IC50) in [1] is above 700 µM; on Beta-lactamase, 335 µM.

In the case of `CN(C)c1ccc(C=CC=C2SC(=S)NC2=O)cc1`, the values for the half-inhibitory concentration (IC50) (in experiment [1]; on Beta-lactamase) were above 100 µM and 8 µM, respectively.

`C[C@]1(Cn2ccnn2)[C@H](C(=O)O)N2C(=O)C[C@H]2S1(=O)=O` [TAZOBACTAM]: the minimal inhibitory concentration (MIC) was 32 µg/mL in the experiment on Pseudomonas aeruginosa [6]; 8 µg/mL in the experiment on Pseudomonas aeruginosa [7]; 32 µg/mL in the experiment with Serratia marcescens [15]; 8 µg/mL in the experiment with Escherichia coli [22]; 64 µg/mL with Enterobacter cloacae [23]; 4 µg/mL with Serratia marcescens [19].

As for `O=C(O)CN1C(=O)/C(=C/c2ccccc2)SC1=S`, the IC50 (in [1]; at Beta-lactamase) was above 700 µM throughout.

With `O=C1NC(=S)SC1=CC=Cc1ccc([N+](=O)[O-])cc1`, the IC50 is 100 µM in experiment [1] and 4.2 µM against Beta-lactamase.

`O=C1NC(=S)SC1=CC=Cc1ccco1`: the IC50 is 100 µM in [1] and 62 µM against Beta-lactamase.

Turning to `O=C1NC(=S)S/C1=C\CCc1ccccc1`, the IC50 in experiment [1] amounted to 32 µM; on Beta-lactamase it was 9.7 µM.
